Test results reported in patent US9067898B1, “Isothiazole derivatives as GPR120 agonists for the treatment of type II diabetes” (Janssen Pharmaceutica NV, priority 2014, dated 2015).
pEC50: −log10 of the molar value.

Columns and labels:
[1] = target: T1, long form of human GPR120 (Homo sapiens, UniProt Q5NUL3); experiment: Human GPR120 DiscoveRx PathHunter Beta-Arrestin assay, Procedure β-arrestin A; type: cell-based; settings: PathHunter CHO-K1 GPR120 β-Arrestin cell line, 3000 cells per well, read-out: hGPR120 β-arrestin A EC50
T1 construct: host or cells: PathHunter CHO-K1 GPR120 β-Arrestin Cell Line
T1 sequence (Q5NUL3 1-377 isoform Q5NUL3-1): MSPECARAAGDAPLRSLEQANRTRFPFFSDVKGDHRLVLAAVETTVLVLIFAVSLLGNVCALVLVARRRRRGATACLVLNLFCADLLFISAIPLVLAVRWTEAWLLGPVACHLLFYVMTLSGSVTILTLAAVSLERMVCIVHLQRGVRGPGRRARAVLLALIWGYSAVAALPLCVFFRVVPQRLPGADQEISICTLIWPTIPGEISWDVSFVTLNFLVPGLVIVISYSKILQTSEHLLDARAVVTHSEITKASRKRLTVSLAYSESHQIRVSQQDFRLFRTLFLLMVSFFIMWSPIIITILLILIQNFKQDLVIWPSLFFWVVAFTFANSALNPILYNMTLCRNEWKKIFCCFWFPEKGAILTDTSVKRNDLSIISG
T1 sequence (P32121 whole entry partner): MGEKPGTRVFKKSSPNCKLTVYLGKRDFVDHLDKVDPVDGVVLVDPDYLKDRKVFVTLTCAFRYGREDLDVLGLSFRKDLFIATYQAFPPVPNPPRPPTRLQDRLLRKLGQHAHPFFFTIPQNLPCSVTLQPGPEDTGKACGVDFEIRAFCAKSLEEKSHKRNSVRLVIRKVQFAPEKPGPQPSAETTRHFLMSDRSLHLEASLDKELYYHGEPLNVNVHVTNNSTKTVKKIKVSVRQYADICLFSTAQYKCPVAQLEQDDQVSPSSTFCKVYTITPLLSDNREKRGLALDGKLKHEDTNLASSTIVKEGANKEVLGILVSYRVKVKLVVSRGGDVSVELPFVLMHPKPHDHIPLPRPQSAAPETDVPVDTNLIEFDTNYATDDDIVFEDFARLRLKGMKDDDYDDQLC
Summary of the method: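 PathHunter CHO-K1 β-arrestin cells expressed long-form GPR120 (Procedure A, 3000 cells/well) or short-form GPR120 (Procedure B, 5000 cells/well). Compounds were serially diluted from 25 µM and incubated 90 min at 37 °C in HBSS/20 mM HEPES/0.1% BSA, pH 7.4. Luminescence was read after 60 min detection at RT; EC50 comes from % activity versus positive control, Hill slope fixed at 1.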

Human GPR120 short form = target: T2, Human GPR120 short form (Homo sapiens, UniProt Q5NUL3); experiment: Human GPR120 calcium flux assay (FLIPR), Procedure Calcium A; type: cell-based; settings: HEK-293 cells expressing human GPR120 short form, 2500 cells/well; read-out: GPR120 Ca2+ Assay A EC50
T2 construct: expressed in transfected cells
T2 sequence (Q5NUL3 1-361): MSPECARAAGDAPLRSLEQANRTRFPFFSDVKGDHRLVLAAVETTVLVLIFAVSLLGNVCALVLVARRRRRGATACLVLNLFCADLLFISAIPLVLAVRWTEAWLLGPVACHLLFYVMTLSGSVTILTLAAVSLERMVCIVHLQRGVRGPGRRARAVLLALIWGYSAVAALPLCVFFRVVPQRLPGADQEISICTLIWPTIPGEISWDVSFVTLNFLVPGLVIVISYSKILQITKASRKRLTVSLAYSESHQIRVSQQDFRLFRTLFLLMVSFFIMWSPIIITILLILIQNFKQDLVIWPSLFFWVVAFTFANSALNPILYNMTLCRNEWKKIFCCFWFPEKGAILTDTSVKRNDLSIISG
Summary of the method: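 HEK293 cells stably expressing the short isoform (NM_001195755.1), 2500/well, starved 1 h, then loaded with Fluo-4 NW plus probenecid (30 min 37 °C, 15 min RT). Compound solutions 0.012–100 μM, 0.2% DMSO final; FLIPR read 300 s after addition. EC50 from Fmax−Fmin fitted to variable-slope sigmoid (Hill <2).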

SMILES	pEC50 [1]	pEC50 (Human GPR120 short form)
Cc1ccc(-c2nsc(C(F)(F)F)c2COc2c(F)cc(CCC(=O)O)cc2F)cc1 [Cpd 115, 3-(3,5-difluoro-4-[[3-(4-methylphenyl)-5-(trifluoromethyl)-1,2-thiazol-4-yl]methoxy]phenyl) propanoic acid]	7.15	6.98
CCc1ccc(-c2nsc(C(F)(F)F)c2COc2c(F)cc(CCC(=O)O)c(F)c2F)cc1 [Cpd 117, 3-(4-((3-(4-ethylphenyl)-5-(trifluoromethyl)isothiazol-4-yl)methoxy)-2,3,5-trifluorophenyl)propanoic acid]	6.60	6.98
CCc1ccc(-c2nsc(C(F)(F)F)c2COc2c(F)c(F)c(CCC(=O)O)c(F)c2F)cc1 [Cpd 118, 3-(4-((3-(4-ethylphenyl)-5-(trifluoromethyl)isothiazol-4-yl)methoxy)-2,3,5,6-tetrafluorophenyl)propanoic acid]	6.59	6.98
Cc1snc(-c2ccc(Cl)cc2)c1COc1ccc(CCC(=O)O)c(F)c1F [Cpd 119, 3-(4-((3-(4-chlorophenyl)-5-methylisothiazol-4-yl)methoxy)-2,3-difluorophenyl)propanoic acid]	6.89	6.97
Cc1c(CCC(=O)O)ccc(OCc2c(Cl)nsc2-c2ccc(Cl)cc2F)c1C [Cpd 122]	5.89	6.96
COc1nsc(-c2ccc(C)cc2F)c1COc1c(F)cc(CCC(=O)O)cc1F [Cpd 123, 3-(3,5-difluoro-4-[[5-(2-fluoro-4-methylphenyl)-3-methoxy-1,2-thiazol-4-yl]methoxy]phenyl) propanoic acid]	6.52	6.95
CCc1ccc(-c2nsc(C(F)(F)F)c2COc2ccc(CCC(=O)O)c(C)c2C)cc1 [Cpd 127, 3-(4-((3-(4-ethylphenyl)-5-(trifluoromethyl)isothiazol-4-yl)methoxy)-2,3-dimethylphenyl)propanoic acid]	6.75	6.91
OCCCc1ccc(OCc2c(-c3ccc(Cl)cc3)nsc2C(F)(F)F)c(F)c1F [Cpd 132, 3-(4-((3-(4-chlorophenyl)-5-(trifluoromethyl)isothiazol-4-yl)methoxy)-2,3-difluorophenyl)propan-1-ol]	6.91	6.89
Cc1c(CCC(=O)O)ccc(OCc2c(-c3c(F)cc(Cl)cc3F)nsc2C(F)(F)F)c1C [Cpd 133, 3-(4-((3-(4-chloro-2,6-difluorophenyl)-5-(trifluoromethyl)isothiazol-4-yl)methoxy)-2,3-dimethylphenyl)propanoic acid]	6.27	6.88
CCc1ccc(-c2nsc(C(F)(F)F)c2COc2c(F)cc(CCCO)cc2F)cc1 [Cpd 135, 3-(4-((3-(4-ethylphenyl)-5-(trifluoromethyl)isothiazol-4-yl)methoxy)-3,5-difluorophenyl)propan-1-61]	7.24	6.87
CCc1ccc(-c2nsc(C(F)(F)F)c2COc2ccc(CCCO)c(F)c2F)cc1 [Cpd 139, 3-(4-((3-(4-ethylphenyl)-5-(trifluoromethyl)isothiazol-4-yl)methoxy)-2,3-difluorophenyl)propan-1-ol]	7.11	6.86
CCc1ccc(-c2snc(Cl)c2COc2c(F)cc(CCCO)c(F)c2F)cc1 [Cpd 140, 3-(4-((3-chloro-5-(4-ethylphenyl)isothiazol-4-yl)methoxy)-2,3,5-trifluorophenyl)propan-1-ol]	7.17	6.86
OCCCc1cc(F)c(OCc2c(C3CCCC3)nsc2C(F)(F)F)c(F)c1 [Cpd 141, 3-(4-[[3-cyclopentyl-5-(trifluoromethyl)-1,2-thiazol-4-yl]methoxy]-3,5-difluorophenyl)propan-1-ol]	6.98	6.83
Cc1cc(OCc2c(-c3ccc(Cl)c(F)c3)nsc2C(F)(F)F)c(F)cc1CCC(=O)O [Cpd 148, 3-(4-((3-(4-chloro-3-fluorophenyl)-5-(trifluoromethyl)isothiazol-4-yl)methoxy)-5-fluoro-2-methylphenyl)propanoic acid]	6.62	6.78
CCc1nsc(-c2ccc(C)cc2F)c1COc1c(F)cc(CCC(=O)O)cc1F [Cpd 150, 3-(4-[[3-ethyl-5-(2-fluoro-4-methylphenyl)-1,2-thiazol-4-yl]methoxy]-3,5-difluorophenyl)propanoic acid]	6.62	6.78
Cc1c(CCC(=O)O)ccc(OCc2c(Cl)nsc2-c2ccc(F)cc2)c1C [Cpd 154, 3-(4-[[3-chloro-5-(4-fluorophenyl)-1,2-thiazol-4-yl]methoxy]-2,3-dimethylphenyl)propanoic acid]	6.37	6.75
Cc1c(CCC(=O)O)ccc(OCc2c(Cl)nsc2-c2cccc(Cl)c2)c1C [Cpd 156, 3-(4-[[3-chloro-5-(3-chlorophenyl)-1,2-thiazol-4-yl]methoxy]-2,3-dimethylphenyl)propanoic acid]	6.43	6.73
Cc1c(CCC(=O)O)ccc(OCc2csnc2-c2ccc(Cl)cc2)c1C [Cpd 166, 3-(4-((3-(4-chlorophenyl)isothiazol-4-yl)methoxy)-2,3-dimethylphenyl)propanoic acid]	5.87	6.66
COc1ccc(-c2snc(Cl)c2COc2ccc(CCCO)c(F)c2F)cc1 [Cpd 168, 3-(4-[[3-chloro-5-(4-methoxyphenyl)-1,2-thiazol-4-yl]methoxy]-2,3-difluorophenyl)propan-1-ol]	6.49	6.65
O=C(O)CCc1cc(F)c(OCc2csnc2-c2ccc(Br)cc2)c(F)c1 [Cpd 169, 3-(4-((3-(4-bromophenyl)isothiazol-4-yl)methoxy)-3,5-difluorophenyl)propanoic acid]	6.31	6.65
Cc1c(CCC(=O)O)ccc(OCc2csnc2-c2ccc(Br)cc2)c1C [Cpd 170, 3-(4-((3-(4-bromophenyl)isothiazol-4-yl)methoxy)-2,3-dimethylphenyl)propanoic acid]	6.09	6.65
O=C(O)CCc1cc(F)c(OCc2csnc2-c2ccc(Cl)cc2)c(F)c1 [Cpd 179, 3-(4-((3-(4-chlorophenyl)isothiazol-4-yl)methoxy)-3,5-difluorophenyl)propanoic acid]	6.31	6.57
CCc1ccc(-c2snc(Cl)c2COc2c(F)cc(CCCO)cc2F)cc1 [Cpd 183, 3-(4-[[3-chloro-5-(4-ethylphenyl)-1,2-thiazol-4-yl]methoxy]-3,5-difluorophenyl)propan-1-ol]	7.28	6.52
O=C(O)/C=C/c1ccc(OCc2c(Cl)nsc2-c2ccc(Cl)cc2)c(F)c1F [Cpd 185, (E)-3-(4-((3-chloro-5-(4-chlorophenyl)isothiazol-4-yl)methoxy)-2,3-difluorophenyl)acrylic acid]	6.49	6.52
O=C(O)CCc1ccc(OCc2csnc2-c2ccc(Br)cc2)c(F)c1F [Cpd 187, 3-(4-((3-(4-bromophenyl)isothiazol-4-yl)methoxy)-2,3-difluorophenyl)propanoic acid]	6.05	6.52
O=C(O)CCc1ccc(OCc2csnc2-c2ccc(Cl)cc2)c(F)c1F [Cpd 189, 3-(4-((3-(4-chlorophenyl)isothiazol-4-yl)methoxy)-2,3-difluorophenyl)propanoic acid]	6.21	6.51
